Measurements: ChEMBL document CHEMBL1201862, “PubChem BioAssay data set” (2004)
Blank lines part the entries; values can stand above or below the compound they belong to. Active and inactive are the calls of the source.

Key:
[1] = target: Peroxisome proliferator-activated receptor gamma/Nuclear receptor coactivator 3 (Homo sapiens, UniProt P37231); format: functional;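 further: agonist potency for raising coactivator recruitment to the receptor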
[2] = target: Peroxisome proliferator-activated receptor gamma/Nuclear receptor coactivator 2 (Homo sapiens, UniProt P37231); format: functional;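 further: agonist potency for raising coactivator recruitment to the receptor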
[3] = target: Peroxisome proliferator-activated receptor gamma/Nuclear receptor coactivator 1 (Homo sapiens, UniProt P37231); format: functional;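 further: agonist potency as compounds enhance coactivator SRC-1 recruitment to PPARgamma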
Leucine aminopeptidase = target: T1, Leucine aminopeptidase (Plasmodium falciparum 3D7, UniProt Q8IL11); assay: P. falciparum M17LAP inhibitors, primary screen, biochemical, fluorogenic H-Leu-NHMec substrate, 1536-well (AID 1619); format: functional
T1 sequence (Q8IL11 whole entry): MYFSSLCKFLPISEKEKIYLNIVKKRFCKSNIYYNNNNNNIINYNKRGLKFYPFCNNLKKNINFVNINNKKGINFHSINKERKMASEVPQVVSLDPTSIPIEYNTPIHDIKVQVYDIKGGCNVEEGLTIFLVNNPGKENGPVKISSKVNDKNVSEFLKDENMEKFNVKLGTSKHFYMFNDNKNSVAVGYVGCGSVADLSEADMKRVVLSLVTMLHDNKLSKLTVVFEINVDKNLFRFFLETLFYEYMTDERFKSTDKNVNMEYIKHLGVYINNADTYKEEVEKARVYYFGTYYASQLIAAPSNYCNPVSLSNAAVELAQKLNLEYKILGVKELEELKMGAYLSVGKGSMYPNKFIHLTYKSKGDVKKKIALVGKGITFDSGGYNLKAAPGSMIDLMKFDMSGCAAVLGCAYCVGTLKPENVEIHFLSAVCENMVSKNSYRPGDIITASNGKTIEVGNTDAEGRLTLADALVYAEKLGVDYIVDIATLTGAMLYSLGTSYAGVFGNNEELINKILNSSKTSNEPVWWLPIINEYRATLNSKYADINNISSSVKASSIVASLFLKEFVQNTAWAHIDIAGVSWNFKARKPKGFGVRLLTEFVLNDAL

[4] = enhancers of respiration in Yfh1-depleted yeast, dose response, Friedreich's ataxia, plus single-dose screen (AID 1465); format: functional;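 further: yeast depleted of Yfh1p frataxin homolog grown on glycerol needing respiration; WST-1 tetrazolium dye reduction as measure of cellular dehydrogenase metabolic activity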
[5] = HIV-1 Env-mediated cell fusion inhibitors, dose response, CCR5-tropic Env (AID 2279); format: functional
Cytochrome P450 2D6 = Cytochrome P450 2D6 (Homo sapiens, UniProt P10635); assay: qHTS Assay for Inhibitors and Substrates of Cytochrome P450 2D6. [Related pubchem assays: 410 ]; format: ADME; conditions: read-out: Potency
[6] = target: T2, Potassium voltage-gated channel subfamily KQT member 2 (Rattus norvegicus, UniProt O88943); assay: (§1) Mode of action - deactivation constant concentration response for ztz240, a potentiator of KCNQ2 potassium channels. [Related pubchem assays: 2258 (Summary assay for the KCNQ2 potentiators.), 2239 (Primary HTS assay for KCNQ2 potentiators with 305606 compounds tested, and 1644 are found to be active.)]; format: functional
[7] = target: T2, Potassium voltage-gated channel subfamily KQT member 2; assay: as §1, with “action assay” for “action”, “current amplitude” for “deactivation constant”, “derivatives of ZTZ240,” for “ztz240,”; format: functional
[8] = target: T3, Histone-lysine N-methyltransferase NSD2 (Homo sapiens, UniProt O96028); format: biochemical
T3 sequence (O96028 whole entry): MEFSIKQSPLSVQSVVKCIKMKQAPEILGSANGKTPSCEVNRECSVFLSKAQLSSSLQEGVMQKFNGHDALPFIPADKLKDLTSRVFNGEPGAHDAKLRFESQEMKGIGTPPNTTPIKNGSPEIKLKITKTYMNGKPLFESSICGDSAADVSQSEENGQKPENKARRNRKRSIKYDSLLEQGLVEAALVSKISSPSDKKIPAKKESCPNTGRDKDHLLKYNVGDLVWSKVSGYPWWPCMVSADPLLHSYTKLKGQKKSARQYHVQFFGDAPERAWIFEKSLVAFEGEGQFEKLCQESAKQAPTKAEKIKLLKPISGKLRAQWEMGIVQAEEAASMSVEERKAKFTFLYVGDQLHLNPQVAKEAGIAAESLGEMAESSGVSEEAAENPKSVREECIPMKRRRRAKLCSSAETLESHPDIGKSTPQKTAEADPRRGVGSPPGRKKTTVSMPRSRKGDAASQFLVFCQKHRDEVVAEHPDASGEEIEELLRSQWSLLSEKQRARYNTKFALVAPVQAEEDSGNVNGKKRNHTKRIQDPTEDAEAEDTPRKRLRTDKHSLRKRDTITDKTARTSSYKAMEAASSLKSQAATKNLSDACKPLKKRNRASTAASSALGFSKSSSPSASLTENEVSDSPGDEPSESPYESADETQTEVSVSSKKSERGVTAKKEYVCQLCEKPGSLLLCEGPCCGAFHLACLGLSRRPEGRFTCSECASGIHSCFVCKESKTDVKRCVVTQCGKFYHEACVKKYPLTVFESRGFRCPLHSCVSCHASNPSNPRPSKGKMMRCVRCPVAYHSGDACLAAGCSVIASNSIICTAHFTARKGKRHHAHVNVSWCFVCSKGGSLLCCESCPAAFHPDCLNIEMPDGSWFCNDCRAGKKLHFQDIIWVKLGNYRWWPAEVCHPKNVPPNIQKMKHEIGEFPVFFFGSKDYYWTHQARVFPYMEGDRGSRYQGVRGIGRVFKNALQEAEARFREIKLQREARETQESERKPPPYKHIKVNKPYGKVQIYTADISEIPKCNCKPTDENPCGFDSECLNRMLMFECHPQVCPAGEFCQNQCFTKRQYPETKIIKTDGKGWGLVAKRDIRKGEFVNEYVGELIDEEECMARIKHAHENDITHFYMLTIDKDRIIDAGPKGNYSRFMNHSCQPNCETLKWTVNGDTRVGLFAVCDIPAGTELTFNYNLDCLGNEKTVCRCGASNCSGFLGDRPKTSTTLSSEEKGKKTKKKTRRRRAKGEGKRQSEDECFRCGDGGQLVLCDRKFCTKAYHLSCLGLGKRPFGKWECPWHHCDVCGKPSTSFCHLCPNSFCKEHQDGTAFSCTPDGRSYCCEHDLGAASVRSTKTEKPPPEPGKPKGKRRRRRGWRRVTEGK

Aspartyl aminopeptidase = Aspartyl aminopeptidase (Plasmodium falciparum 3D7, UniProt Q8I2J3)
Protein Tat = target: T4, Protein Tat (Human immunodeficiency virus type 1 group M subtype B (isolate HXB2)(HIV-1), UniProt P04608); format: functional;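 further: tat binding to TAR RNA read out by fluorescence polarization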
T4 sequence (P04608 whole entry): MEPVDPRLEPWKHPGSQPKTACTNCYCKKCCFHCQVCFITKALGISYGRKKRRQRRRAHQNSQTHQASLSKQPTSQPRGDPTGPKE

Procathepsin L = Procathepsin L (Homo sapiens, UniProt P07711)
[9] = target: Ras and Rab interactor 1/Tyrosine-protein kinase ABL1 (Homo sapiens, UniProt P00519+Q13671); format: functional;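 further: biochemical TR-FRET dose-response test measuring inhibition of binding between Rin1 and Abl proteins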
[10] = target: T5, Alkaline phosphatase, tissue-nonspecific isozyme (Homo sapiens, UniProt P05186)
T5 sequence (P05186 whole entry): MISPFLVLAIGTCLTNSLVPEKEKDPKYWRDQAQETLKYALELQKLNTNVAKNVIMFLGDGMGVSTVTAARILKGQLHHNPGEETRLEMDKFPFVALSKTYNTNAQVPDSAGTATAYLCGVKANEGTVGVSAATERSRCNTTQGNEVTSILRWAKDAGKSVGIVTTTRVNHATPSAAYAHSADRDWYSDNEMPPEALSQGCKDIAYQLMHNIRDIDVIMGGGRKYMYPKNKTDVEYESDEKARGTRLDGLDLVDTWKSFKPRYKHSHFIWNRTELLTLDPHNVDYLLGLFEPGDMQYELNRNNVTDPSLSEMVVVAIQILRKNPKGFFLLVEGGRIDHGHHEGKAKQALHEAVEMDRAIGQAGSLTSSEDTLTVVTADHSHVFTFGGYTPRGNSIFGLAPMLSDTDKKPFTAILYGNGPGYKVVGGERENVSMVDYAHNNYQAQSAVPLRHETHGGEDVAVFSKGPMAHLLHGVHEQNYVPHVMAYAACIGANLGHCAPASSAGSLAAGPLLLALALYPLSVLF

HEK293 = assay: Fluorescence-based counterscreen for potentiators or agonists of NPY-Y2: cell-based high-throughput dose response assay to identify inhibitors of cyclic nucleotide gated ion channel (CNGC) activity. In this assay, the parental HEK293 cell line transfected with a cyclic-nucleotide gated ion channel (CNGC)-based cAMP sensor is used to measure inhibition of isoproterenol-induced CNGC activity by test compound.; format: functional; conditions: Homo sapiens;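 further: stimulus is 1 µM isoproterenol at EC100 plus PDE inhibitor Ro 20-1724 at 25 µM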
[11] = target: Neuropeptide Y receptor type 2 (Homo sapiens, UniProt P49146); assay: Fluorescence-based cell-based high-throughput dose response assay for agonists of NPY-Y2. [Related pubchem assays: 1703 (Screening assay (CNGC inhibitors).), 1359 (Screening assay (NPY-Y2 potentiators or agonists).), 1304 (Screening assay (NPY-Y1 potentiators or agonists).), 1710 (Screening assay (NPY-Y2 agonists).), 1791 (Summary AID.)]; format: functional
[12] = target: Neuropeptide Y receptor type 1 (Homo sapiens, UniProt P25929); assay: Fluorescence-based counterscreen for agonists of NPY-Y2: cell-based high-throughput dose response assay for agonists of NPY-Y1.; format: functional
Streptococcus = assay: Luminescence Microorganism-Based Dose Response Follow up to Identify Compounds Cytotoxic to Streptococcus. [Related pubchem assays: 1677 (Project Summary), 1915, 1914, 1902 (Retest at Dose), 1900 (Counter Screen), 1662 (Primary HTS)]; format: functional, organism-based

T2 sequence (O88943 whole entry): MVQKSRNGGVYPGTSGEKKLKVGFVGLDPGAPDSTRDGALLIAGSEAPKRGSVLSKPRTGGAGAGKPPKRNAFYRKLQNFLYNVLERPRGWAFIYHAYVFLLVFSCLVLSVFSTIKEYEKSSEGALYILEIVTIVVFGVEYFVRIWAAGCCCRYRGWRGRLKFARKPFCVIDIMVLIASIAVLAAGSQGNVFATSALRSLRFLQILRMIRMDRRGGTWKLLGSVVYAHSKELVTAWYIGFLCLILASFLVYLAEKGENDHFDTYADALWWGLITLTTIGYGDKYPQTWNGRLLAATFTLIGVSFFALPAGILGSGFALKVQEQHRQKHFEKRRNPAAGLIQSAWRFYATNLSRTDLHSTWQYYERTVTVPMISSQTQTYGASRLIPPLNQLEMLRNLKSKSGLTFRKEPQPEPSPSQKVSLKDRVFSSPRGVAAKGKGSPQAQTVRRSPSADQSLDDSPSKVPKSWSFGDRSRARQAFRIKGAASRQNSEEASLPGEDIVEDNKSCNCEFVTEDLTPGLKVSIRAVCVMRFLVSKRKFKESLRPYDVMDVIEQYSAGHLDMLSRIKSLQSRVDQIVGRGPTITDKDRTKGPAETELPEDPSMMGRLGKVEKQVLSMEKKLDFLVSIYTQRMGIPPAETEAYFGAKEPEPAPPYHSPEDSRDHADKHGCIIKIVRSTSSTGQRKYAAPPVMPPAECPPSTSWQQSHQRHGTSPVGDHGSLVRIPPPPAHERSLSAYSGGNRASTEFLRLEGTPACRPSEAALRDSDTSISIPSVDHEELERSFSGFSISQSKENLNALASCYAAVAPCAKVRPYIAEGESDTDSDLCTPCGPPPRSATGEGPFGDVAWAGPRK
Ras and Rab interactor 1/Tyrosine-protein kinase ABL1, sequence (P00519 whole entry): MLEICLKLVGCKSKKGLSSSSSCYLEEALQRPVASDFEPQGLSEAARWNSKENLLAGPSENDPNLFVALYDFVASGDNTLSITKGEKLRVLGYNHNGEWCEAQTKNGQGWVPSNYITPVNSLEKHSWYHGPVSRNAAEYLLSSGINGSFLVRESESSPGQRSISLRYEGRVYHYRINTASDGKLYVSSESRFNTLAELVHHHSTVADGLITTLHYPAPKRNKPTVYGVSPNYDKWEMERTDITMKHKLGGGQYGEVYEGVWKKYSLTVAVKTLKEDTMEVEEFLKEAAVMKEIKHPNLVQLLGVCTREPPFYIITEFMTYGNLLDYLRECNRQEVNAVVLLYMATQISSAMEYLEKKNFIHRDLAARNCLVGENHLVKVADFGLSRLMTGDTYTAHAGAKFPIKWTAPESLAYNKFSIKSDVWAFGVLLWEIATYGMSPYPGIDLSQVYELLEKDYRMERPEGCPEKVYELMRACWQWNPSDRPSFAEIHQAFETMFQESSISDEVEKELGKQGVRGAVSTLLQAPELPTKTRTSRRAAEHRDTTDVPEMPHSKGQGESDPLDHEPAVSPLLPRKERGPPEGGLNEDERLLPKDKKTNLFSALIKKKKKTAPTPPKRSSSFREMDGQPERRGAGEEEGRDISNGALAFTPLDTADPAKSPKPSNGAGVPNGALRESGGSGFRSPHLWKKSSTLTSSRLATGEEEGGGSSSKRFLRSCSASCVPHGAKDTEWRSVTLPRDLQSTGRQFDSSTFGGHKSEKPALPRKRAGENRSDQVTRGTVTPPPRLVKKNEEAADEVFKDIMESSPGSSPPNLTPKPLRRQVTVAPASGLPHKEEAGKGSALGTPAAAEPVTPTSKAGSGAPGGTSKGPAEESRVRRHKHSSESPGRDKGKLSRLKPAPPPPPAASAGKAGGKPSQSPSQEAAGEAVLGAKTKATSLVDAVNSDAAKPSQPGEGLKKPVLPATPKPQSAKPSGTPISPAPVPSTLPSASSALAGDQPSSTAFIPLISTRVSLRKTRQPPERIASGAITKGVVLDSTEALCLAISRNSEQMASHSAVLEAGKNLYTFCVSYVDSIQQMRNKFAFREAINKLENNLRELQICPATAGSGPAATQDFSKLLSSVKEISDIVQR
Ras and Rab interactor 1/Tyrosine-protein kinase ABL1, sequence (Q13671 whole entry): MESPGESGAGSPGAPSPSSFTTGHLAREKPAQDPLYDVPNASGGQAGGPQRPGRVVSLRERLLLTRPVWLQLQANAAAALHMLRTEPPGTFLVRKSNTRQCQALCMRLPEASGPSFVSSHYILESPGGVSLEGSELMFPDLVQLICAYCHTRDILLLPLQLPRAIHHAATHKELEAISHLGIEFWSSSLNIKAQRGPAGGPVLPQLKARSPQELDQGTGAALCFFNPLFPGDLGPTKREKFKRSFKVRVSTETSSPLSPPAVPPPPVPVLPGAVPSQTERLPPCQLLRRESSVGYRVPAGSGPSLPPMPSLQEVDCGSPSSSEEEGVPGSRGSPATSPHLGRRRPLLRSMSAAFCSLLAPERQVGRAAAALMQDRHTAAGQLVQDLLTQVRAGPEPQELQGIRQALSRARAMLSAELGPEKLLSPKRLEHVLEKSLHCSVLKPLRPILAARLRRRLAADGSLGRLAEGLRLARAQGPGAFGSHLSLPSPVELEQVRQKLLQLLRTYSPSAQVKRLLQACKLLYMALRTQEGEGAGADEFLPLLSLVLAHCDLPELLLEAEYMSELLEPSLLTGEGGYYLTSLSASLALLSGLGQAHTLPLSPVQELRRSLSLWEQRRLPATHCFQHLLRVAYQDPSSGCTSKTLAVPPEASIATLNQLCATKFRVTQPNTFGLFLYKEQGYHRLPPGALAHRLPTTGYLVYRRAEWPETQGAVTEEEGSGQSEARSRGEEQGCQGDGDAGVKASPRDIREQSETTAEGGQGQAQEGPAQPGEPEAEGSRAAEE
Neuropeptide Y receptor type 1, sequence (P25929 whole entry): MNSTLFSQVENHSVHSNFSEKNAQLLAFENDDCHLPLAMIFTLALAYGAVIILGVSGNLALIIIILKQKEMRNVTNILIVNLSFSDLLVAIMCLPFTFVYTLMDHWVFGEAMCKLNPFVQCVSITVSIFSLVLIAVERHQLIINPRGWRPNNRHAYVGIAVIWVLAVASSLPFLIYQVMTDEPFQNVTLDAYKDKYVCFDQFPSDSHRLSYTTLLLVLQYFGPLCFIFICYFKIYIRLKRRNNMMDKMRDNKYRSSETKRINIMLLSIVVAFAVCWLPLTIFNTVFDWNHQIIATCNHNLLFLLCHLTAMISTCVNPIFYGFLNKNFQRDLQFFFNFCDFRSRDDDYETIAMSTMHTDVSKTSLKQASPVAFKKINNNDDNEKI
Aspartyl aminopeptidase, sequence (Q8I2J3 whole entry): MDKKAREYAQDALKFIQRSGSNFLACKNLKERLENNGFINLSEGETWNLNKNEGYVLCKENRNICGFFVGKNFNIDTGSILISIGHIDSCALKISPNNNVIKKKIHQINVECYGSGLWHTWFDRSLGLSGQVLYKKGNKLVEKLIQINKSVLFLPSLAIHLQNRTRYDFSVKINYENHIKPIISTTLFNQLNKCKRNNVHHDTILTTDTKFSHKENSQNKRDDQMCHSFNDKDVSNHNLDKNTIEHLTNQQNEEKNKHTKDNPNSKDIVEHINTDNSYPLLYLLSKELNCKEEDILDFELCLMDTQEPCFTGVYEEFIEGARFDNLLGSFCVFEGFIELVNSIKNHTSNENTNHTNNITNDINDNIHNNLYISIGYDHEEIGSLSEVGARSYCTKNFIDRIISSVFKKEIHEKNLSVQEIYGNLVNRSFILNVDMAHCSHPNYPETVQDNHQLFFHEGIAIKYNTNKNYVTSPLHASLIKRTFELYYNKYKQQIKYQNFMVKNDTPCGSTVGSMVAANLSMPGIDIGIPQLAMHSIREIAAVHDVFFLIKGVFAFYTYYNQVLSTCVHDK
Cytochrome P450 2D6, sequence (P10635 whole entry): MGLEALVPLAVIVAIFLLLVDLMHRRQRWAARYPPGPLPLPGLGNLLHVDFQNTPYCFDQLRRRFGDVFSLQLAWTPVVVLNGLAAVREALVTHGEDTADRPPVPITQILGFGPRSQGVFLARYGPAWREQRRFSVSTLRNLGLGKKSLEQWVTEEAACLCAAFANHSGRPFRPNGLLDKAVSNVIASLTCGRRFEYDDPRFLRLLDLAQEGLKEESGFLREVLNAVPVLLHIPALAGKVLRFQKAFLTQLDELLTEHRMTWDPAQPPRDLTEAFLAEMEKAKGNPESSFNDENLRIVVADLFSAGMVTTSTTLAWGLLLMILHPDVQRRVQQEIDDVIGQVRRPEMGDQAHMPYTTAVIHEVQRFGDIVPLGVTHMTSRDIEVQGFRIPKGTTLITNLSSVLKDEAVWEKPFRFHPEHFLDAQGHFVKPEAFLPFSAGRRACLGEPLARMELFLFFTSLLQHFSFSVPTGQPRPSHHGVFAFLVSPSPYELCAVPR
Procathepsin L, sequence (P07711 whole entry): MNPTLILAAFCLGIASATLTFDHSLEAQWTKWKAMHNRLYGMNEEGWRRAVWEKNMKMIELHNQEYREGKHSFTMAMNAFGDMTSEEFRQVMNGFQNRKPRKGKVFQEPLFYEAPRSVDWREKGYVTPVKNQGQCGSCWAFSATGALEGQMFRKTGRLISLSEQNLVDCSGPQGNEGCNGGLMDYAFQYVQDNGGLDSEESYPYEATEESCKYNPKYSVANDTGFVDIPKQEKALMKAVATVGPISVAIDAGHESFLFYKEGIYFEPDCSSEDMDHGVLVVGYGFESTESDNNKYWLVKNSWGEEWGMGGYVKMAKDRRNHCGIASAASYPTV
Neuropeptide Y receptor type 2, sequence (P49146 whole entry): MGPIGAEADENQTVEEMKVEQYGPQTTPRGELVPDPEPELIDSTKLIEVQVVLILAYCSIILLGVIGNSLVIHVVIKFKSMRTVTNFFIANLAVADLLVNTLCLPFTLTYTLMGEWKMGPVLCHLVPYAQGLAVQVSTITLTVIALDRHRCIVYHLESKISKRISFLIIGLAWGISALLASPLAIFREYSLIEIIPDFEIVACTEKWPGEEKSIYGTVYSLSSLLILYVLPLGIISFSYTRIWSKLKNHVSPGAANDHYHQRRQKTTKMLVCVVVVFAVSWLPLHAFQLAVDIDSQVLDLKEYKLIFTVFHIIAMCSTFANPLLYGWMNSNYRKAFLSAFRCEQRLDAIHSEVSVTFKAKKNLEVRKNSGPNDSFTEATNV

- EC50 [1]: > 79.4 µM (not active)
- EC50 [2]: > 79.4 µM (not active)
- EC50 [3]: > 79.4 µM (not active)
SMILES: CCOC(=O)c1c(C)[nH]c(C(=O)COC(=O)CNC(=O)C2CCCCC2)c1C

- IC50 (Leucine aminopeptidase): 109 µM (active)
SMILES: N#C/C(=C/c1ccc(N2CCOCC2)o1)C(=O)NC1CCCCC1
- EC50 [4]: > 100 µM (active)

- AC50 (Cytochrome P450 2D6): 6.31 µM (inconclusive)
SMILES: CC12C=C(/C=C/CCc3ccco3)C(C)(C1)C(CCc1ccco1)CC2=O (stereo not given)

- EC50 [6]: 5.9 µM (active)
- EC50 [7]: 1.46 µM (active)
SMILES: O=C(Nc1ccc(Cl)nc1)c1ccc(F)cc1

- EC50 [10]: > 100 µM (not active)
SMILES: Cc1ccc(C)n1-c1ccc(C(=O)NN)s1

Second part, the compound before the results:

SMILES: O=C1/C(=C\c2ccc(O)c(O)c2)C(c2ccccc2)=NN1c1ccccc1
- IC50 [5]: 27.1 µM (active)

SMILES: O=C(/C=C/c1ccc(O)c(O)c1)OC1C(O)CC(OC(=O)/C=C/c2ccc(O)c(O)c2)(C(=O)O)CC1O (stereo not given)
- AC50 [8]: 5.43 µM (active)
- IC50 (Aspartyl aminopeptidase): 1.94 µM (active)
- IC50 (cells): 31.9 µM (active)
- IC50 (Protein Tat): 85.2 µM (inconclusive)
- IC50 (Procathepsin L): > 59.6 µM (not active)
- IC50 [9]: 18.9 µM (inactive)

SMILES: O=C(N/N=C/c1ccc(OC(F)F)cc1)c1cccc(S(=O)(=O)N2CCOCC2)c1
- EC50 (HEK293): > 35.4 µM (not active)
- EC50 [11]: > 35.4 µM (not active)
- EC50 [12]: > 35.4 µM (not active)

SMILES: Cc1ccc(C(=O)N2c3ccccc3Sc3ccccc32)cc1
- EC50 (Streptococcus): > 500 µM (not active)
